Measured values: publication PMC7897990, “TriTOX: A novel Trichomonas vaginalis assay platform for high-throughput screening of compound libraries” (International Journal for Parasitology: Drugs and Drug …, 2021)
Like-named read-outs stand apart in the source and are kept apart here. Positions of bridges follow the written chain, without caps; N, C: chain ends. Non-standard residues stand in square brackets, D forms with d. Residues, ends and D or L forms follow the SMILES beside them. *: point of attachment. d(aThr) = C[C@@H](O)[C@@H](N)C(=O)O; X1 = CCCCCCCCCCCC(O)CC(=O)*; GABA = NCCCC(=O)O

System: Trichomonas vaginalis G3 trophozoites
Conditions: for T.vaginalis_Absorbance_Rep1: replicate 1, raw absorbance; for T.vaginalis_Absorbance_Rep2: replicate 2, raw absorbance; for T. vaginalis HTS result in words: 384-well, 25 μL, 10,000 cells/mL, 48 h, biological duplicates, hit = >50% inhibition
[1] = HTS, parasite screen at 1 µg/mL, replicate 1
[2] = HTS, parasite screen at 1 µg/mL
[3] = HTS, parasite screen at 1 µg/mL, replicate 2
[4] = HTS replicate 1, parasite screen 1 µg/mL
[5] = HTS replicate 2, parasite screen 1 µg/mL

Molecule	T.vaginalis_%inb_Rep1 [1] [%]	T.vaginalis_Absorbance_Rep1 [2]	T.vaginalis_%inb_Rep2 [3] [%]	T.vaginalis_Absorbance_Rep2 [2]	T.vaginalis_%inb_Rep1 [4] [%]	T.vaginalis_%inb_Rep2 [5] [%]	also measured
CC(C)CCC[C@@H](C)[C@@H]1CC[C@]2(C)C3=C(CC[C@@]12C)[C@@]1(C)CC[C@H](O)C(C)(C)[C@@H]1CC3 [Dihydroeuphol]	14.92	0.986	10.05	0.759			
CO[C@H]1C[C@H](O[C@@H]2/C(C)=C/C[C@@H]3C[C@@H](C[C@]4(C=C[C@H](C)[C@@H](C5CCCCC5)O4)O3)OC(=O)[C@@H]3C=C(C)[C@@H](O)[C@H]4OC/C(=C\C=C\[C@@H]2C)[C@]43O)O[C@@H](C)[C@@H]1O [Doramectin monosaccharide]	13.89	0.967	12.80	0.797			
CC(=O)c1c(O)cc(O)cc1O [Monoacetylphloroglucinol]					4.36	14.18	
CC[C@H](C)[C@@H]1OC(=O)C(C)(C)[C@@H](O)[C@@H](Cc2ccccc2)OC(=O)[C@H](C(C)C)OC(=O)[C@@H](NC(=O)c2cccc(NC=O)c2O)[C@H](C)OC1=O [Neoantimycin]					13.59	11.67	
Elaiophylin		0.954		0.689			
COC1=C(OC)C(O)C(C)C(C)C1=O (stereo not shown) [Glioroseinol]	11.16	0.922	1.92	0.665			
C/C1=C\C(C)C(O)/C(C)=C/C(O[C@H]2O[C@H](CO)[C@@H](O)[C@H](O)[C@@H]2O)C(O)C(C)C(O)CC(O)/C=C\C(C)C(O)C(C)CCC(O)CC(O)C(C)C(O)C(C)C(O)CC(O)CC(O)C(C)C(C(C)CCCCCCN)OC(=O)CCCCCC(O)C(C)C(O)CC/C=C/C(C)C1O (stereo partly shown) [Monazomycin]					9.53	13.73	
CN[C@@H]1C[C@H]2O[C@@](C)([C@@H]1OC)n1c3ccccc3c3c4c(c5c6ccccc6n2c5c31)C(=O)NC4 [staurosporine, reference compound]							T. vaginalis HTS result in words: supported the anti-trichomonal activity
CC(C)=CC(=O)CC(C)c1ccc(C)cc1 (stereo not shown) [Turmerone]	9.33		14.44				
CC[C@@H]1CCN[C@H](C(=O)N[C@@H]([C@H]2O[C@H](SC)[C@H](O)[C@@H](O)[C@H]2O)[C@H](C)Cl)C1 [Pirlimycin]					5.02	5.77	
CN(C)C1C(=O)C(C(=O)NCN2CCN(CCO)CC2)=C(O)C2(O)C(=O)C3=C(O)c4c(O)cccc4C(C)(O)C3CC12 (stereo not shown) [Pipacycline]					11.66	12.19	
CC(=O)Nc1c2sscc-2n(C)c1=O [thiolutin, reference compound]							T. vaginalis HTS result in words: supported the anti-trichomonal activity
CCCCCCCCCCCC(O)CC(=O)N[C@@H](CC(C)C)C(=O)N[C@H](CCC(=O)O)C(=O)N[C@H]1C(=O)N[C@H](C(C)C)C(=O)N[C@@H](CC(C)C)C(=O)N[C@H](CO)C(=O)N[C@@H](CC(C)C)C(=O)N[C@@H](CC(C)C)C(=O)N[C@H](CO)C(=O)N[C@@H](C(C)C)C(=O)O[C@@H]1C (stereo partly shown) [Orfamide B] (X1-L[dE][d(aThr)][dV]L[dS]LL[dS]V; ester 3-C)					16.23	12.19	
COc1ccc2nc(C(=O)N[C@@H]3COC(=O)[C@H](C(C)(C)O)N(C)C(=O)CN(C)C(=O)CNC(=O)[C@@H]4[C@@H](OC(C)=O)CC=NN4C(=O)[C@H](NC(=O)c4nc5ccc(OC)cc5cc4O)COC(=O)[C@H](C(C)(C)O)N(C)C(=O)CN(C)C(=O)CNC(=O)[C@@H]4[C@@H](OC(C)=O)CC=NN4C3=O)c(O)cc2c1 [luzopeptin A, reference compound]							T. vaginalis HTS result in words: partial hits
CC(=O)OC[C@@]1(C)[C@@H]2C[C@H](OC(C)=O)[C@@]3(C)Oc4cc(-c5ccccc5)oc(=O)c4[C@H](O)[C@@H]3[C@@]2(C)CC[C@@H]1OC(C)=O [Phenylpyropene A]					13.03	14.11	
Enniatin A1		0.98		0.8			
C/C=C(/C)c1cc(O)c(C)c2c1Oc1c(C)c(O)cc(/C(C)=C\C)c1C(=O)O2 [Folipastatin]	12.58	0.95	14.11	0.855			
C=C[C@]1(C)C[C@@H](O)[C@]2(C)[C@H](C)CC[C@]3(CCC(=O)[C@H]32)[C@@H](C)[C@@H]1O [Mutilin]					12.02	13.21	
Nc1cc2nc3ccccc3oc-2cc1=O [Questiomycin A]					16.02	12.32	
CCc1c(O)c(C)c(C(C)CC)oc1=O (stereo not shown) [Germicidin A]	11.41	0.927	12.19	0.825			

Molecule	T.vaginalis_%inb_Rep1 [1] [%]	T.vaginalis_Absorbance_Rep1 [2]	T.vaginalis_%inb_Rep2 [3] [%]	T.vaginalis_Absorbance_Rep2 [2]	T.vaginalis_%inb_Rep1 [4] [%]	T.vaginalis_%inb_Rep2 [5] [%]	also measured
COc1c2c(cc3c1c(=O)c1ccccc1n3C)OCO2 [Evoxanthine]	15.29	0.993	5.42	0.695			
C[C@@H](O)CCCCCCCCCCCCCc1cc(O)cc(O)c1C(=O)O [Phanerosporic acid]					18.46	9.81	
Pyripyropene A					11.61	12.83	
CN[C@@H]1C[C@H]2O[C@@](C)([C@@H]1OC)n1c3ccccc3c3c4c(c5c6ccccc6n2c5c31)C(=O)NC4=O [7-oxostaurosporine, reference compound]							T. vaginalis HTS result in words: active analogues
COc1c(Cl)c(O)c(Cl)c(C)c1C(=O)O[C@H]1[C@H](O)C[C@H](O[C@H]2[C@@H](O)CC(=O)O[C@@H]2C)O[C@@H]1C [Flambalactone]	13.89	0.967	13.52	0.807			
Cc1cc(=O)n2c3c(c4c(cc13)c(CO)cc(=O)n4C)OC2 [Nybomycin]					11.05	10.26	
COc1cc([C@H]2[C@@]3(O)[C@H](O)[C@H]4C[C@]2(O)[C@](O)(C(=O)O4)[C@H]3C(=O)c2ccccc2)oc(=O)c1 [Enterocin]	13.08	0.96	12.38	0.828			
Cc1ncc(-c2c[nH]c3ccccc23)o1 [Pimprinine]					11.61	11.80	
O=C(O)C1CSC(c2ccccc2O)=N1 (stereo not shown) [Dihydroaeruginoic acid]	11.15	0.916	12.87	0.798			
C=C(NC(=O)C(=C)NC(=O)c1ccc2c(n1)-c1coc(n1)C(=C)NC(=O)C(=C)NC(=O)c1nc(oc1C)C(=C)NC(=O)C(C(C)(C)O)NC(=O)C(=C)NC(=O)c1coc(n1)/C(=C/C)NC(=O)[C@H]([C@@H](C)O)NC(=O)c1csc-2n1)C(N)=O (stereo partly shown) [Geninthiocin]	14.25	0.983	12.51	0.83			
CN1CCC2(c3cccc4c3NC3N(C)CCC43c3cccc4c3NC3N(C)CCC43C34CCN(C)C3Nc3c(C56CCN(C)C5Nc5ccccc56)cccc34)c3ccccc3NC12 (stereo not shown) [Psychotridine]					9.23	6.15	
CO[C@H]1C[C@H](O[C@H]2[C@H](C)O[C@@H](O[C@@H]3/C(C)=C/C[C@@H]4C[C@@H](C[C@]5(C=C[C@H](C)[C@@H](C6CCCCC6)O5)O4)OC(=O)C4=C[C@H](C)[C@@H](O)[C@H]5OC/C(=C\C=C[C@@H]3C)[C@@]45O)C[C@@H]2OC)O[C@@H](C)[C@@H]1O [Doramectin, delta2-]	13.79	0.965	15.04	0.828			
COC(=O)c1cc(O)cc(OC)c1C(=O)c1c(O)cc(C)cc1OC [Monomethylsulochrin]					8.42	11.03	
CC1=C[C@H]2C(=O)O[C@H]3C[C@@H](C/C=C(\C)[C@@H](O)[C@@H](C)/C=C/C=C4\CO[C@H]([C@@H]1O)[C@@]42O)O[C@@]1(C=C[C@H](C)[C@@H](C2CCCCC2)O1)C3 [Doramectin aglycone]	13.62	0.962	12.44	0.792			
CC(=O)OCc1c(O)c2c(c3c1OC(=O)c1c(C)cc(O)c(C=O)c1O3)C(O)OC2=O (stereo not shown) [Galbinic acid]	15.37	1.005	12.89	0.836			
CC(C)C[C@@H]1NC(=O)[C@@H](C(C)C)NC(=O)[C@@H](C)NC(=O)CCCNC(=O)[C@@H](Cc2c[nH]c3ccccc23)NC(=O)[C@@H](C)NC(=O)[C@@H](C(C)C)NC1=O [Unguisin B] (cyclo([GABA][dA][dV]L[dV][dA][dW]))	10.17		14.69				
CCCC[C@H](O)[C@@H]1CC(OC)=CC(=O)O1 [Pestalotin]					11.05	11.16	
CC1=C[C@H]2C(=O)O[C@H]3C[C@@H](C/C=C(\C)C[C@@H](C)/C=C/C=C4\CO[C@H](/C1=N/O)[C@@]42O)O[C@@]1(CC[C@H](C)[C@@H](C)O1)C3 [Milbemycin A3 oxime]					12.78	11.35	
CN(C)[C@@H]1C(O)=C(C(N)=O)C(=O)[C@@]2(O)C(O)=C3C(=O)c4c(O)cccc4[C@@](C)(O)[C@H]3C[C@@H]12 [BIA-T1334]							T.vaginalis_%inb_Rep1 (parasite screen at 1 µg/mL, replicate 1): 9.28%; T.vaginalis_%inb_Rep2 (parasite screen at 1 µg/mL, replicate 2): 5.48%
